Data as given in PubChem BioAssay AID220 (DTP/NCI, 2004).
Several values for one entry are separate records, joined by “and”; a condition that tells them apart may be missing. Equal entries are not always repeated. Results filed as inconclusive are left out. Positions of bridges follow the written chain, without caps; N, C: chain ends. Non-standard residues stand in square brackets, D forms with d. Residues, ends and D or L forms follow the SMILES beside them. Chains are numbered I, II in the order given. *: point of attachment. Quinoxaline2carbonyl = O=C(c1cnc2ccccc2n1)*; NMeV = CN[CH](C(=O)O)C(C)C; NMeC = CN[CH](CS)C(=O)O

Test system: CD8F1 mice, subcutaneous mammary adenocarcinoma, T/C%
Test: NCI In Vivo Anticancer Drug Screen. Data for tumor model Mammary Adenocarcinoma CD8F1 (subcutaneous) in CD8F1
Conditions: higher = larger tumour
Protocol: The antitumor activity of compounds was measured in mice bearing transplantable tumors. Survival or tumor size were measured and the results are expressed as the measurement made in the treated group (T) divided by the measurement made in the vehicle treated control group (C). The tumor model used in this assay is Mammary Adenocarcinoma CD8F1 (subcutaneous) in CD8F1

[1] = endpoint: median tumor weight (est.), dose: 6.25 mg/kg/injection, schedule: Q07DX005 (ip), vehicle: saline with Tween-80
[2] = endpoint: median tumor weight (est.), dose: 12.5 mg/kg/injection, schedule: Q07DX005 (ip), vehicle: saline with Tween-80
[3] = endpoint: median tumor weight change, dose: 125.0 mg/kg/injection, schedule: Q01DX001 (ip), vehicle: saline with Tween-80
[4] = endpoint: median tumor weight change, dose: 250.0 mg/kg/injection, schedule: Q01DX001 (ip), vehicle: saline with Tween-80
[5] = endpoint: median tumor weight change, dose: 125.0 mg/kg/injection, schedule: Q01DX001 (ip), vehicle: Klucel (hydroxypropylcellulose) (HPC)
[6] = endpoint: median tumor weight (est.), dose: 25.0 mg/kg/injection, schedule: Q07DX005 (ip), vehicle: saline with Tween-80
[7] = endpoint: median tumor weight (est.), dose: 50.0 mg/kg/injection, schedule: Q07DX005 (ip), vehicle: saline with Tween-80
[8] = endpoint: median tumor weight (est.), dose: 100.0 mg/kg/injection, schedule: Q07DX005 (ip), vehicle: saline with Tween-80
[9] = endpoint: median tumor weight (est.), dose: 200.0 mg/kg/injection, schedule: Q07DX005 (ip), vehicle: saline with Tween-80
[10] = endpoint: median tumor weight (est.), dose: 400.0 mg/kg/injection, schedule: Q07DX005 (ip), vehicle: saline with Tween-80
[11] = endpoint: median tumor weight change, dose: 1000.0 mg/kg/injection, schedule: Q01DX001 (ip), vehicle: saline with Tween-80
[12] = endpoint: median tumor weight (est.), dose: 12.5 mg/kg/injection, schedule: Q07DX005 (ip), vehicle: saline
[13] = endpoint: median tumor weight (est.), dose: 50.0 mg/kg/injection, schedule: Q07DX005 (ip), vehicle: saline

Compound: O=C(C#Cc1ccccc1)c1ccccc1
- T/C (endpoint: median tumor weight (est.), dose: 0.39 mg/kg/injection, schedule: Q07DX005 (ip), vehicle: saline with Tween-80): 64 % of control
- T/C (endpoint: median tumor weight (est.), dose: 0.78 mg/kg/injection, schedule: Q07DX005 (ip), vehicle: saline with Tween-80): 68 % of control
- T/C (endpoint: median tumor weight (est.), dose: 1.56 mg/kg/injection, schedule: Q07DX005 (ip), vehicle: saline with Tween-80): 68 % of control
- T/C (endpoint: median tumor weight (est.), dose: 3.12 mg/kg/injection, schedule: Q07DX005 (ip), vehicle: Klucel (hydroxypropylcellulose) (HPC)): 47 % of control
- T/C (endpoint: median tumor weight (est.), dose: 3.12 mg/kg/injection, schedule: Q07DX005 (ip), vehicle: saline with Tween-80): 53 % of control
- T/C [1]: 67 % of control
- T/C [2]: 46 % of control

Compound: O=S(=O)(N=N/C=C1\C=CC=CN1O)c1cccs1
- T/C [3]: 76 % of control
- T/C [4]: 88 % of control

Compound: CCCCN(CCCC)C(Cl)=Nc1ccccc1
- T/C [5]: 82 % of control and 107 % of control

Compound: Cc1cc2c(C(C)C)c(O)c(O)c(C=O)c2c(O)c1-c1c(C)cc2c(C(C)C)c(O)c(O)c(C=O)c2c1O
- T/C (endpoint: median tumor weight change, dose: 31.25 mg/kg/injection, schedule: Q01DX001 (ip), vehicle: saline with Tween-80): 65 % of control

Compound: O=c1[nH]cccc1O
- T/C [3]: 60 % of control
- T/C [4]: 35 % of control

Compound: COc1ccc(OC)c(/C=C/c2ccnc3ccccc23)c1
- T/C [2]: 77 % of control
- T/C [6]: 93 % of control
- T/C [7]: 78 % of control
- T/C [8]: 67 % of control
- T/C [9]: 86 % of control
- T/C [10]: 71 % of control

Compound: CS(=O)(=O)c1ncc(Br)cn1
- T/C [1]: 242 % of control
- T/C [2]: 405 % of control
- T/C [6]: 222 % of control
- T/C [7]: 286 % of control
- T/C [8]: 348 % of control
- T/C [9]: 311 % of control

Compound: CCCCn1cnc2c(=S)nc[nH]c21
- T/C [4]: 60 % of control
- T/C (endpoint: median tumor weight change, dose: 500.0 mg/kg/injection, schedule: Q01DX001 (ip), vehicle: saline with Tween-80): 2 % of control
- T/C [11]: 8 % of control

Compound: Cn1c(=O)c2ncnnc2n(C)c1=O
- T/C (endpoint: median tumor weight (est.), dose: 4.7 mg/kg/injection, schedule: Q07DX005 (ip), vehicle: Klucel (hydroxypropylcellulose) (HPC)): 59 % of control
- T/C (endpoint: median tumor weight (est.), dose: 9.4 mg/kg/injection, schedule: Q07DX005 (ip), vehicle: Klucel (hydroxypropylcellulose) (HPC)): 63 % of control
- T/C (endpoint: median tumor weight (est.), dose: 18.8 mg/kg/injection, schedule: Q07DX005 (ip), vehicle: Klucel (hydroxypropylcellulose) (HPC)): 52 % of control

Compound: COc1cccc2c1C(=O)c1c(O)c3c(c(O)c1C2=O)C[C@@](O)(C(C)=O)C[C@@H]3OC1CC(N(C)C)C(O)C(C)O1 (some centres undefined)
- T/C (endpoint: mean tumor weight, dose: 1.0 mg/kg/injection, schedule: Q07DX006 (ip), vehicle: water): 197 % of control
- T/C (endpoint: mean tumor weight, dose: 2.0 mg/kg/injection, schedule: Q07DX006 (ip), vehicle: water): 73 % of control
- T/C (endpoint: mean tumor weight, dose: 4.0 mg/kg/injection, schedule: Q07DX006 (ip), vehicle: water): 30 % of control
- T/C (endpoint: mean tumor weight, dose: 8.0 mg/kg/injection, schedule: Q07DX006 (ip), vehicle: water): 1 % of control
- T/C (endpoint: median tumor weight (est.), dose: 1.0 mg/kg/injection, schedule: Q07DX005 (ip), vehicle: water): 108 % of control
- T/C (endpoint: median tumor weight (est.), dose: 2.0 mg/kg/injection, schedule: Q07DX005 (ip), vehicle: water): 63 % of control
- T/C (endpoint: median tumor weight (est.), dose: 4.0 mg/kg/injection, schedule: Q07DX005 (ip), vehicle: water): 45 % of control
- T/C (endpoint: median tumor weight (est.), dose: 8.0 mg/kg/injection, schedule: Q07DX005 (ip), vehicle: water): 42 % of control

Compound: O=c1cc(-c2ccccc2)[nH]c2c1CCCC2
- T/C [11]: 78 % of control

Compound: COC1=C(OC)C(=O)C(C/C=C(\C)CC/C=C(\C)CC/C=C(\C)CC/C=C(\C)CC/C=C(\C)CC/C=C(\C)CC/C=C(\C)CC/C=C(\C)CC/C=C(\C)CCC=C(C)C)=C(C)C1=O
- T/C [2]: 59 % of control
- T/C [6]: 67 % of control
- T/C [7]: 47 % of control
- T/C [8]: 93 % of control
- T/C [9]: 122 % of control
- T/C [10]: 76 % of control

Compound: CCCCCCCCCCCCCCCC(=O)Nc1ccn(C2OC(CO)C(O)C2O)c(=O)n1 (centres undefined)
- T/C [12]: 58 % of control
- T/C (endpoint: median tumor weight (est.), dose: 25.0 mg/kg/injection, schedule: Q07DX005 (ip), vehicle: saline): 63 % of control
- T/C [13]: 65 % of control
- T/C (endpoint: median tumor weight (est.), dose: 100.0 mg/kg/injection, schedule: Q07DX005 (ip), vehicle: saline): 31 % of control
- T/C (endpoint: median tumor weight (est.), dose: 400.0 mg/kg/injection, schedule: Q07DX005 (ip), vehicle: saline): 14 % of control

Compound: OCCN1CCN(CCCN2c3ccccc3Sc3ccc(C(F)(F)F)cc32)CC1
- T/C (endpoint: median tumor weight (est.), dose: 3.12 mg/kg/injection, schedule: Q07DX005 (ip), vehicle: saline): 85 % of control and 109 % of control
- T/C (endpoint: median tumor weight (est.), dose: 6.25 mg/kg/injection, schedule: Q07DX005 (ip), vehicle: saline): 107 % of control and 122 % of control
- T/C [12]: 80 % of control and 83 % of control
- T/C [13]: 47 % of control and 48 % of control

Compound: COC1/C=C\C=C(/C)C(=O)NC2=CC(=O)C=C(C2=O)C(OC)C(C)CC(OC)C(OC)C(C)/C=C(/C)C1OC(N)=O (centres undefined)
- T/C (endpoint: median tumor weight change, dose: 1.88 mg/kg/injection, schedule: Q01DX001 (ip), vehicle: Klucel (hydroxypropylcellulose) (HPC)): 103 % of control
- T/C (endpoint: median tumor weight change, dose: 3.75 mg/kg/injection, schedule: Q01DX001 (ip), vehicle: Klucel (hydroxypropylcellulose) (HPC)): 46 % of control

Compound: COc1ccc2[nH]c3ccc4cc[n+](CCN5CCC(C6CCN(CC[n+]7ccc8ccc9[nH]c%10ccc(OC)cc%10c9c8c7)CC6)CC5)cc4c3c2c1
- T/C (endpoint: median tumor weight change, dose: 62.5 mg/kg/injection, schedule: Q01DX001 (ip), vehicle: Klucel (hydroxypropylcellulose) (HPC)): 58 % of control
- T/C [5]: 68 % of control

Compound: COc1ccc(CC2C(=O)NC(C)C(=O)N(C)C3C(=O)N(C)C(Cc4ccc(O)c(c4)Oc4ccc(cc4)C3O)C(=O)NC(C)C(=O)NC(C)C(=O)N2C)cc1 (centres undefined)
- T/C (endpoint: median tumor weight (est.), dose: 0.12 mg/kg/injection, schedule: Q07DX005 (ip), vehicle: suspension in saline): 116 % of control
- T/C (endpoint: median tumor weight (est.), dose: 0.25 mg/kg/injection, schedule: Q07DX005 (ip), vehicle: suspension in saline): 93 % of control
- T/C (endpoint: median tumor weight (est.), dose: 0.5 mg/kg/injection, schedule: Q07DX005 (ip), vehicle: suspension in saline): 95 % of control
- T/C (endpoint: median tumor weight (est.), dose: 1.0 mg/kg/injection, schedule: Q07DX005 (ip), vehicle: suspension in saline): 94 % of control
- T/C (endpoint: median tumor weight (est.), dose: 2.0 mg/kg/injection, schedule: Q07DX005 (ip), vehicle: suspension in saline): 99 % of control
- T/C (endpoint: median tumor weight (est.), dose: 4.0 mg/kg/injection, schedule: Q07DX005 (ip), vehicle: suspension in saline): 114 % of control

Compound: CSc1ncc2ncn(C3OC(CO)C(O)C3O)c2n1 (centres undefined)
- T/C (endpoint: median tumor weight change, dose: 250.0 mg/kg/injection, schedule: Q01DX001 (ip), vehicle: Klucel (hydroxypropylcellulose) (HPC)): 92 % of control
- T/C (endpoint: median tumor weight change, dose: 500.0 mg/kg/injection, schedule: Q01DX001 (ip), vehicle: Klucel (hydroxypropylcellulose) (HPC)): 110 % of control
- T/C (endpoint: median tumor weight change, dose: 1000.0 mg/kg/injection, schedule: Q01DX001 (ip), vehicle: Klucel (hydroxypropylcellulose) (HPC)): 57 % of control

Compound: Nc1nc(-c2cccc3ccccc23)cc2ccccc12
- T/C [7]: 53 % of control
- T/C [8]: 81 % of control
- T/C [9]: 37 % of control

Compound: CC1NC(=O)C(NC(=O)c2cnc3ccccc3n2)COC(=O)C(C(C)C)N(C)C(=O)C2CSSCC(C(=O)N(C)C(C(C)C)C(=O)OCC(NC(=O)c3cnc4ccccc4n3)C(=O)NC(C)C(=O)N2C)N(C)C1=O (centres undefined) (I: Quinoxaline2carbonyl-SA[NMeC][NMeV] / II: Quinoxaline2carbonyl-SA[NMeC][NMeV]; ester I:1-II:C, I:C-II:1; disulfide I:3-II:3; configuration not given here)
- T/C (endpoint: median tumor weight change, dose: 25.0 micrograms/kg/injection, schedule: Q01DX001 (ip), vehicle: Klucel (hydroxypropylcellulose) (HPC)): 77 % of control
- T/C (endpoint: median tumor weight change, dose: 50.0 micrograms/kg/injection, schedule: Q01DX001 (ip), vehicle: Klucel (hydroxypropylcellulose) (HPC)): 91 % of control
- T/C (endpoint: median tumor weight change, dose: 100.0 micrograms/kg/injection, schedule: Q01DX001 (ip), vehicle: Klucel (hydroxypropylcellulose) (HPC)): 89 % of control
- T/C (endpoint: median tumor weight change, dose: 200.0 micrograms/kg/injection, schedule: Q01DX001 (ip), vehicle: Klucel (hydroxypropylcellulose) (HPC)): 68 % of control
- T/C (endpoint: median tumor weight change, dose: 400.0 micrograms/kg/injection, schedule: Q01DX001 (ip), vehicle: Klucel (hydroxypropylcellulose) (HPC)): 59 % of control

Compound: c1ccc([Te][Te]c2ccccc2)cc1
- T/C (endpoint: median tumor weight change, dose: 75.0 mg/kg/injection, schedule: Q01DX001 (ip), vehicle: Klucel (hydroxypropylcellulose) (HPC)): 97 % of control
- T/C (endpoint: median tumor weight change, dose: 150.0 mg/kg/injection, schedule: Q01DX001 (ip), vehicle: Klucel (hydroxypropylcellulose) (HPC)): 48 % of control
- T/C (endpoint: median tumor weight change, dose: 300.0 mg/kg/injection, schedule: Q01DX001 (ip), vehicle: Klucel (hydroxypropylcellulose) (HPC)): 34 % of control
